Measurements as given in PubChem BioAssay (NCI).
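How tested: cells in 96-well plates exposed to compound for 48 hours at five concentrations. Abbreviation: GI50, concentration required for 50% inhibition of growth. The concentration for full growth arrest is given as TGI.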

Legend:
Assay in all cases: NCI anticancer screen, dose series, 48 h
SK-OV-3 ovarian = tested on: SK-OV-3 ovarian
CCRF-CEM leukemia = tested on: CCRF-CEM leukemia
UACC-257 melanoma = tested on: UACC-257 melanoma
SK-MEL-28 melanoma = tested on: SK-MEL-28 melanoma
COLO 205 colon = tested on: COLO 205 colon
A498 renal = tested on: A498 renal
HCT-116 colon = tested on: HCT-116 colon
UO-31 renal = tested on: UO-31 renal
CAKI-1 renal = tested on: CAKI-1 renal
A549 NSCLC = tested on: A549 NSCLC

For `C=C1C(=O)O[C@H]2[C@H]1CC/C(Cn1cc(Cc3c[nH]c4ccccc34)nn1)=C\CC[C@@]1(C)O[C@@H]21`, which GI50 (SK-OV-3 ovarian) is on record?
The GI50 was 14.2 µM.

And the TGI (SK-OV-3 ovarian)?
Its TGI is 27.4 µM.

What about the GI50 (CCRF-CEM leukemia) of the same compound?
The GI50 was 0.718 µM.

And the TGI (CCRF-CEM leukemia)?
The TGI was 5.92 µM.

And the GI50 (UACC-257 melanoma)?
The GI50 was 2.11 µM.

And the TGI (UACC-257 melanoma)?
The TGI was 4.45 µM.

And the GI50 (SK-MEL-28 melanoma)?
Its GI50 is 1.66 µM.

And the TGI (SK-MEL-28 melanoma)?
The TGI was 3.22 µM.

And the GI50 (COLO 205 colon)?
Its GI50 is 1.83 µM.

And the TGI (COLO 205 colon)?
Its TGI is 3.75 µM.

What about the GI50 (A498 renal) of the same compound?
The GI50 was 3.9 µM.

What about the TGI (A498 renal) of the same compound?
The TGI was 14.3 µM.

What about the GI50 (HCT-116 colon) of the same compound?
Its GI50 is 1.06 µM.

What about the TGI (HCT-116 colon) of the same compound?
Its TGI is 2.38 µM.

What about the GI50 (UO-31 renal) of the same compound?
Its GI50 is 1.49 µM.

What about the TGI (UO-31 renal) of the same compound?
The TGI was 2.86 µM.

What about the GI50 (CAKI-1 renal) of the same compound?
The GI50 was 1.3 µM.

And the TGI (CAKI-1 renal)?
The TGI was 2.64 µM.

And the GI50 (A549 NSCLC)?
The GI50 was 8.63 µM.

What about the TGI (A549 NSCLC) of the same compound?
Its TGI is 23.5 µM.
